Assay results: paper PMC4133103 (DNA repair, 2014)
Read-outs that look alike come from different tables or passages of the source.

Columns and labels:
[1] = target: T1, Dpo4•DNA binary complex (Saccharolobus solfataricus, UniProt Q97W02); test: Substrate specificity assay; type: biochemical, Sulfolobus solfataricus; settings: for kp / Kd: Dpo4 120 nM, 37 °C; for Probability: efficiency/sum of efficiencies × 100; for Fidelity: incorrect/(correct+incorrect) efficiency; for Kd: read-out: Kd,dNTP
T1 sequence (Q97W02 1-352): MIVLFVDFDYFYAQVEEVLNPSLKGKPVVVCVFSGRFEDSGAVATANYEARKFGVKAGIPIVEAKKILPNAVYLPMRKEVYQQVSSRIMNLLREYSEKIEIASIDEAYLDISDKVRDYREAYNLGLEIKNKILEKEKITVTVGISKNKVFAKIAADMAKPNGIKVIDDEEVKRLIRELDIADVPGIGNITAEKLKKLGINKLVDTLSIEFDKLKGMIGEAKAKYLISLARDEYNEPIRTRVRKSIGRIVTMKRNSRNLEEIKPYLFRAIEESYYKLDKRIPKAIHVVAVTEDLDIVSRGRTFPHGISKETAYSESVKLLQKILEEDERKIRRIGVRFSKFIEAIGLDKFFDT

[2] = system: nucleotide excision repair-deficient human XPA cells; settings: cited from earlier work
[3] = system: Salmonella typhimurium (TA98); settings: cited from earlier work
[4] = target: T2, Dpo4 (DNA polymerase IV) (Sulfolobus solfataricus, UniProt Q97W02 1-352); test: EMSA
T2 sequence: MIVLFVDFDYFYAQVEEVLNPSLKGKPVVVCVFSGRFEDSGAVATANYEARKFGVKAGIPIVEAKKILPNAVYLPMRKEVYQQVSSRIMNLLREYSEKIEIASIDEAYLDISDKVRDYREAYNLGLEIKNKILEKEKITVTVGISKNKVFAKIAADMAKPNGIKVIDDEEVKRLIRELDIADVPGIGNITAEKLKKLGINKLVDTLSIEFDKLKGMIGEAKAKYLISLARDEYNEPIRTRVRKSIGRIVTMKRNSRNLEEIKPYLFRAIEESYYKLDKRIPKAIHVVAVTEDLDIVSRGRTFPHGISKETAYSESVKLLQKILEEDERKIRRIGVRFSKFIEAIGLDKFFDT

[5] = DNA substrate 18/26-mer-dG^C8-N-ABA
[6] = DNA substrate 18/26-mer-dG^C8-N-ABA 30 nM
[7] = DNA substrate 18/26-mer-dG^C8-N-ABA vs control 18/26-mer
[8] = DNA substrate 19/26-mer-dG^C8-N-ABA
[9] = DNA substrate 19/26-mer-dG^C8-N-ABA 30 nM
[10] = DNA substrate 19/26-mer-dG^C8-N-ABA vs control 19/26-mer
[11] = DNA substrate 20/26-mer-dG^C8-N-ABA (pause site)
[12] = DNA substrate 20/26-mer-dG^C8-N-ABA (pause site) 30 nM
[13] = DNA substrate 20/26-mer-dG^C8-N-ABA vs control 20/26-mer
[14] = DNA substrate 20/26-mer-dG^C8-N-ABA
[15] = DNA substrate 21/26-mer-dG^C8-N-ABA (pause site)
[16] = DNA substrate 21/26-mer-dG^C8-N-ABA (pause site) 30 nM
[17] = DNA substrate 21/26-mer-dG^C8-N-ABA vs control 21/26-mer
[18] = DNA substrate 21/26-mer-dG^C8-N-ABA
[19] = DNA substrate 22/26-mer-dG^C8-N-ABA 30 nM
[20] = DNA substrate 22/26-mer-dG^C8-N-ABA vs control 22/26-mer
[21] = DNA substrate 22/26-mer-dG^C8-N-ABA
[22] = DNA substrate 21/26-mer-dG^C8-N-ABA (pause site, extension) 30 nM

Molecule	(kp/Kd, dNTP)damaged [1, 5] [M⁻¹ s⁻¹]	Efficiency Ratio (kp/Kd, dNTP)control/(kp/Kd, dNTP)damaged [1, 7]	Probability [1, 5]	(kp/Kd, dNTP)damaged [1, 8] [M⁻¹ s⁻¹]	kp [1, 9]	Efficiency Ratio (kp/Kd, dNTP)control/(kp/Kd, dNTP)damaged [1, 10]	Probability [1, 8]	Fidelity [1, 8]	(kp/Kd, dNTP)damaged [1, 11] [M⁻¹ s⁻¹]	Efficiency Ratio (kp/Kd, dNTP)control/(kp/Kd, dNTP)damaged [1, 13]	Probability [1, 14]	(kp/Kd, dNTP)damaged [1, 15] [M⁻¹ s⁻¹]	kp [1, 16]	Efficiency Ratio (kp/Kd, dNTP)control/(kp/Kd, dNTP)damaged [1, 17]	Probability [1, 18]	Fidelity [1, 18]	Efficiency Ratio (kp/Kd, dNTP)control/(kp/Kd, dNTP)damaged [1, 20]	Probability [1, 21]	Kd [1, 22] [µM]	Kd [1, 19] [µM]	also measured
Nc1ccn([C@H]2C[C@H](O)[C@@H](COP(=O)(O)OP(=O)(O)OP(=O)(O)O)O2)c(=O)n1 [dCTP]	88000	1.25	99.95	6.4	(1.4 ± 0.2) × 10^−3 s^−1	22	0.06	6.7 × 10^−4	490	120	98.93	2.7	(4.3 ± 0.1) × 10^−4 s^−1	12	10.34	1.1 × 10^−1	11	99.55	160 ± 20	1400 ± 300	kp [1, 6]: 2.83 ± 0.08 s⁻¹; kp [1, 12]: 0.25 ± 0.02 s⁻¹; kp [1, 19]: 4.5 ± 0.7 s⁻¹; Kd [1, 6]: 32 ± 5 µM; Kd [1, 9]: 220 ± 80 µM
Nc1ncnc2c1ncn2[C@H]1C[C@H](O)[C@@H](COP(=O)(O)OP(=O)(O)OP(=O)(O)O)O1 [dATP]	9.1	0.85	0.01	6.7	(2.9 ± 0.2) × 10^−3 s^−1	2.1	0.07	7.0 × 10^−4	3	6.3	0.61	1	(4.5 ± 0.2) × 10^−4 s^−1	2.4	3.83	4.3 × 10^−2	0.38	0.34	450 ± 50	470 ± 70	Fidelity [1, 14]: 6.1 × 10^−4; (kp/Kd, dNTP)damaged [1, 21]: 11 M⁻¹ s⁻¹; Fidelity [1, 21]: 3.4 × 10^−4; Kd [1, 6]: 2200 ± 600 µM; Kd [1, 9]: 430 ± 60 µM
Cc1cn([C@H]2C[C@H](O)[C@@H](COP(=O)(O)OP(=O)(O)OP(=O)(O)O)O2)c(=O)[nH]c1=O [dTTP]	16	5.4	0.02	5.5		1.6	0.05	5.7 × 10^−4	1.6	52	0.32	0.4	(1.7 ± 0.1) × 10^−4 s^−1	4.5	1.57	1.8 × 10^−2	5.0	0.07	420 ± 80	770 ± 140	(kp/Kd, dNTP)damaged [1, 21]: 2.2 M⁻¹ s⁻¹; Fidelity [1, 21]: 6.9 × 10^−4
Nc1nc2c(ncn2[C@H]2C[C@H](O)[C@@H](COP(=O)(O)OP(=O)(O)OP(=O)(O)O)O2)c(=O)[nH]1 [dGTP]	18	1.6	0.02	9600	0.48 ± 0.02 s⁻¹	2.6	99.82		0.68	66	0.14	22	(8.9 ± 0.7) × 10^−4 s^−1	170	84.26		6.5	0.04	400 ± 80	1100 ± 200	kp [1, 12]: (8.1 ± 0.1) × 10^−4 s^−1; Fidelity [1, 14]: 1.4 × 10^−4; (kp/Kd, dNTP)damaged [1, 21]: 1.3 M⁻¹ s⁻¹; Fidelity [1, 21]: 4.1 × 10^−4; Kd [1, 6]: 350 ± 40 µM; Kd [1, 9]: 50 ± 9 µM
Nc1nc2c(nc(Nc3ccc4c5c(cccc35)C(=O)c3ccccc3-4)n2[C@H]2C[C@H](O)[C@@H](CO)O2)c(=O)[nH]1 [dG^C8-N-ABA, N-(2’-deoxyguanosin-8-yl)-3-aminobenzanthrone]																					replication block among the three major 3-NBA derived DNA adducts [2]: strongest replication block; mutational frequency ([2]; primarily G-to-A transitions followed by G-to-T transversions): 30.6%
O=C1c2ccccc2-c2ccc([N+](=O)[O-])c3cccc1c23 [3-NBA, 3-Nitrobenzanthrone]																					mutagenicity [3]: one of the most mutagenic compound ever tested
21/26-mer-dGC8-N-ABA (dsDNA, N-(2'-deoxyguanosin-8-yl)-3-aminobenzanthrone (dGC8-N-ABA) at G6 of strand 2 (from 5' end)) DNA 1: AACGACGGCCAGTGAATTCGC DNA 2: CCCGCGCGAATTCACTGGCCGTCGTT																					Kd [4]: 0.029 ± 0.007 µM
22/26-mer-dGC8-N-ABA (dsDNA, N-(2'-deoxyguanosin-8-yl)-3-aminobenzanthrone (dGC8-N-ABA) at G6 of strand 2 (from 5' end)) DNA 1: AACGACGGCCAGTGAATTCGCG DNA 2: CCCGCGCGAATTCACTGGCCGTCGTT																					Kd [4]: 0.005 ± 0.0009 µM
